In patent US4797395A, “1-Acyloxyalkyl esters of cephalosporin” (Takeda Chemical Industries, Ltd., priority 1983, dated 1989):
Counter-ions that a name gives are not always drawn. Like-named read-outs stand apart in the source and are kept apart here.

Experiments:
[1] = mouse, in vivo
Protocol: The compounds of Examples (compound Nos. 1, 2, 3, 4, 5, 6, 7 and 8) and, as a control compound, the pivaloyloxymethyl ester of compound [II] (hereinafter referred to briefly as compound A) are administered orally to mice, each compound to one animal, in the dose of 100 mg/kg in terms of the non-ester, i.e. compound [II]. At 0.25, 0.5, 1.0 and 2.0 hours after administration, the concentration of compound [II] in the plasma of each mouse is measured by the cup method using Proteus mirabilis Eb 313 as the test organism and the area under plasma concentration-time curve from zero to 2 hours (AUC) is calculated. As a control, compound [II] is subcutaneously administered to a mouse and the AUC value is calculated as above. The bioavailability is calculated by means of the following equation. [formula]

Staphylococcus aureus = conditions: gram-positive; Antimicrobial Agent and Chemotherapy 14, 557-568 (1978); cited from earlier work
Escherichia coli = conditions: gram-negative; Antimicrobial Agent and Chemotherapy 14, 557-568 (1978); cited from earlier work
Klebsiella pneumoniae = conditions: gram-negative; Antimicrobial Agent and Chemotherapy 14, 557-568 (1978); cited from earlier work
Proteus vulgaris = conditions: gram-negative; Antimicrobial Agent and Chemotherapy 14, 557-568 (1978); cited from earlier work
Proteus mirabilis = conditions: gram-negative; Antimicrobial Agent and Chemotherapy 14, 557-568 (1978); cited from earlier work
Proteus morganii = conditions: gram-negative; Antimicrobial Agent and Chemotherapy 14, 557-568 (1978); cited from earlier work

| Bioavailability ([1]; 100 mg/kg, 120 min) [%] | Plasma level of non-ester (compound [II]), 0.25 hr ([1]; po, 100 mg/kg, 15 min) [ng/mL] | Plasma level of non-ester (compound [II]), 0.5 hr ([1]; po, 100 mg/kg, 30 min) [ng/mL] | Plasma level of non-ester (compound [II]), 1.0 hr ([1]; po, 100 mg/kg, 60 min) [ng/mL] | Plasma level of non-ester (compound [II]), 2.0 hr ([1]; po, 100 mg/kg, 120 min) [ng/mL] | AUC ([1]; po, 100 mg/kg, 120 min) [ng·h/mL] | Plasma level of non-ester (compound [II]), 0.25 hr ([1]; sc, 0.25 h) [ng/mL] | Plasma level of non-ester (compound [II]), 0.5 hr ([1]; sc, 0.5 h) [ng/mL] | Plasma level of non-ester (compound [II]), 1.0 hr ([1]; sc, 1 h) [ng/mL] | Bioavailability ([1]; sc, 120 min) [%] | Plasma level of non-ester (compound [II]), 2.0 hr ([1]; sc, 2 h) [ng/mL] | SMILES | antibacterial activity (Staphylococcus aureus) | antibacterial activity (Escherichia coli) | antibacterial activity (Klebsiella pneumoniae) | antibacterial activity (Proteus vulgaris) | antibacterial activity (Proteus mirabilis) | antibacterial activity (Proteus morganii) |
| --- | --- | --- | --- | --- | --- | --- | --- | --- | --- | --- | --- | --- | --- | --- | --- | --- | --- |
| 41.8 | 21000 | 16200 | 6100 | 600 |  |  |  |  |  |  | CN(C)CCn1nnnc1SCC1=C(C(=O)OCOC(=O)C(C)(C)C)N2C(=O)[C@@H](NC(=O)Cc3csc(N)n3)[C@H]2SC1 [compound A, reference compound] |  |  |  |  |  |  |
| 94.4 | 66300 | 34500 | 8900 | 900 | 36600 |  |  |  |  |  | CC(C)C(OC(=O)C1=C(CSc2nnnn2CCN(C)C)CS[C@@H]2[C@H](NC(=O)Cc3csc(N)n3)C(=O)N12)OC(=O)C1CCCCC1.Cl.Cl (stereo partly drawn) [Compound No. 1, 1-(Cyclohexylcarbonyloxy)-2-methylpropyl 7β-[2-(2-aminothiazol-4-yl)acetamido]-3-[[[1-(2-dimethylaminoethyl) -1H-tetrazol-5-yl]thio]methyl]ceph-3-em-4-carboxylate dihydrochloride] |  |  |  |  |  |  |
|  |  |  |  |  |  | 69200 | 29000 | 13200 | 100 | 1500 | CN(C)CCn1nnnc1SCC1=C(C(=O)O)N2C(=O)[C@@H](NC(=O)Cc3csc(N)n3)[C@H]2SC1 [compound [II]] | potent antibacterial activity | potent antibacterial activity | potent antibacterial activity | potent antibacterial activity | potent antibacterial activity | potent antibacterial activity |
| 103.5 | 50000 | 39600 | 15600 | 2330 | 40200 |  |  |  |  |  | CCCC(=O)OC(OC(=O)C1=C(CSc2nnnn2CCN(C)C)CS[C@@H]2[C@H](NC(=O)Cc3csc(N)n3)C(=O)N12)C1CCCCC1 (stereo partly drawn) [Compound No. 8, 1-n-Butyryloxy-1-cyclohexylmethyl 7β-[2-(2-aminothiazol-4-yl)acetamido]-3-[[[1-(2-dimethylaminoethyl) -1H-tetrazol-5-yl]thio]methyl]ceph-3-em-4-carboxylate dihydrochloride] |  |  |  |  |  |  |
| 98.8 | 47000 | 38400 | 14400 | 2800 | 38400 |  |  |  |  |  | CCCC(OC(=O)C1=C(CSc2nnnn2CCN(C)C)CS[C@@H]2[C@H](NC(=O)Cc3csc(N)n3)C(=O)N12)OC(=O)C1CCCCC1.Cl.Cl (stereo partly drawn) [compound 4, 1-(Cyclohexylcarbonyloxy)butyl 7β-[2-(2-aminothiazol-4-yl)acetamido]-3-[[[1-(2-dimethylaminoethyl) -1H-tetrazol-5-yl]thio]methyl]ceph-3-em-4-carboxylate dihydrochloride] |  |  |  |  |  |  |
| 107.8 | 46100 | 32200 | 21200 | 4700 | 41900 |  |  |  |  |  | CN(C)CCn1nnnc1SCC1=C(C(=O)OC(OC(=O)C2CCCCC2)C2CCCCC2)N2C(=O)[C@@H](NC(=O)Cc3csc(N)n3)[C@H]2SC1.Cl.Cl (stereo partly drawn) [compound 2, 1-(Cyclohexylcarbonyloxy)-1-cyclohexylmethyl 7β-[2-(2-aminothiazol-4-yl)acetamido]-3-[[[1-(2-dimethylaminoethyl) -1H-tetrazol-5-yl]thio]methyl]ceph-3-em-4-carboxylate dihydrochloride] |  |  |  |  |  |  |
| 86.4 | 59500 | 25000 | 11700 | 1000 | 33500 |  |  |  |  |  | CCC(OC(=O)C1=C(CSc2nnnn2CCN(C)C)CS[C@@H]2[C@H](NC(=O)Cc3csc(N)n3)C(=O)N12)OC(=O)C1CCCCC1.Cl.Cl (stereo partly drawn) [compound 3, 1-(Cyclohexylcarbonyloxy)propyl 7β-[2-(2-amino-thiazol-4-yl)acetamido]-3-[[[1-(2-dimethylaminoethyl) -1H-tetrazol-5-yl]thio]methyl]ceph-3-em-4-carboxylate dihydrochloride] |  |  |  |  |  |  |
| 88.9 | 36400 | 30000 | 17000 | 3200 | 34500 |  |  |  |  |  | CCCCC(=O)OC(OC(=O)C1=C(CSc2nnnn2CCN(C)C)CS[C@@H]2[C@H](NC(=O)Cc3csc(N)n3)C(=O)N12)C1CCCCC1.Cl.Cl (stereo partly drawn) [Compound No. 7, 1-n-Pentanoyloxy-1-cyclohexylmethyl 7β-[2-(2-aminothiazol-4-yl)acetamido]-3-[[[1-(2-dimethylaminoethyl)-1H-tetrazol-5-yl]thio]methyl]ceph-3-em-4-carboxylate dihydrochloride] |  |  |  |  |  |  |

| SMILES | Bioavailability ([1]; 100 mg/kg, 120 min) [%] | Plasma level of non-ester (compound [II]), 0.25 hr ([1]; po, 100 mg/kg, 15 min) [ng/mL] | Plasma level of non-ester (compound [II]), 0.5 hr ([1]; po, 100 mg/kg, 30 min) [ng/mL] | Plasma level of non-ester (compound [II]), 1.0 hr ([1]; po, 100 mg/kg, 60 min) [ng/mL] | Plasma level of non-ester (compound [II]), 2.0 hr ([1]; po, 100 mg/kg, 120 min) [ng/mL] | AUC ([1]; po, 100 mg/kg, 120 min) [ng·h/mL] | Plasma level of non-ester (compound [II]), 0.25 hr ([1]; sc, 0.25 h) [ng/mL] | Plasma level of non-ester (compound [II]), 0.5 hr ([1]; sc, 0.5 h) [ng/mL] | Plasma level of non-ester (compound [II]), 1.0 hr ([1]; sc, 1 h) [ng/mL] | Bioavailability ([1]; sc, 120 min) [%] | Plasma level of non-ester (compound [II]), 2.0 hr ([1]; sc, 2 h) [ng/mL] | antibacterial activity (Staphylococcus aureus) | antibacterial activity (Escherichia coli) | antibacterial activity (Klebsiella pneumoniae) | antibacterial activity (Proteus vulgaris) | antibacterial activity (Proteus mirabilis) | antibacterial activity (Proteus morganii) |
| --- | --- | --- | --- | --- | --- | --- | --- | --- | --- | --- | --- | --- | --- | --- | --- | --- | --- |
| CC(C)C(OC(=O)CC1CCCCC1)OC(=O)C1=C(CSc2nnnn2CCN(C)C)CS[C@@H]2[C@H](NC(=O)Cc3csc(N)n3)C(=O)N12.Cl.Cl (stereo partly drawn) [compound 5, 1-(Cyclohexylacetoxy)-2-methylpropyl 7β-[2-(2-aminothiazol-4-yl)acetamido]-3-[[[1-(2-dimethylaminoethyl) 1H-tetrazol-5-yl]thio]methyl]ceph-3-em-4-carboxylate dihydrochloride] | 88.8 | 29200 | 46700 | 11100 | 2600 | 34500 |  |  |  |  |  |  |  |  |  |  |  |
